Laboratory results: PubChem BioAssay (NCI)
Several values for one entry are separate records, joined by “and”; a condition that tells them apart may be missing. Equal entries are not always repeated.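 A five-concentration, 48-hour dose response in 96-well plates underlies each endpoint, interpolated linearly between surrounding concentrations. At the GI50, growth is halved. TGI marks complete inhibition of growth.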

Key:
Assay in all cases: NCI anticancer screen, dose series, 48 h
[1] = system: DU-145 prostate
[2] = system: LOX IMVI melanoma
[3] = system: ACHN renal
[4] = system: TK-10 renal
[5] = system: SF-295 CNS
[6] = system: T-47D breast
[7] = system: UACC-257 melanoma
[8] = system: 786-0 renal
[9] = system: OVCAR-3 ovarian
[10] = system: HCC-2998 colon

| SMILES | TGI [1] | TGI [2] | TGI [3] | TGI [4] | TGI [5] | TGI [6] | TGI [7] | TGI [8] [µM] | TGI [9] | TGI [10] | GI50 [4] [µM] | GI50 [6] [µM] |
| --- | --- | --- | --- | --- | --- | --- | --- | --- | --- | --- | --- | --- |
| Cc1cc(-n2nnc(C(=O)O)c2-c2ccccc2)c2ccc(Cl)cc2n1 | > 100 µM | > 100 µM | > 100 µM | > 100 µM | > 100 µM | > 100 µM | > 100 µM | > 100 | > 100 µM | > 100 µM |  |  |
| CCC1(O)CC(OC2CC(N(C)C)C(OC3CC(O)C(OC4OC(C)C(=O)C=C4N)C(C)O3)C(C)O2)c2c(cc3c(c2O)C(=O)c2c(O)cccc2C3=O)C1C(=O)OC (configuration not stated) | 1.7 µM and 1.71 µM | 1.48 µM and 1.56 µM | 0.312 µM and 0.895 µM | 1.1 µM and 2.31 µM | 1.53 µM and 1.13 µM | 0.657 µM and 1.79 µM | 0.553 µM and 0.356 µM | 0.0971 | 1.18 µM and 0.624 µM | 0.0824 µM and 0.0294 µM | 0.0398 | 0.0221 |
| COC(=O)C1CC2(C)C=CC1N(C(=O)OCc1ccccc1)C2 (configuration not stated) | > 100 µM | > 100 µM | > 100 µM | > 100 µM | > 100 µM | > 100 µM | > 100 µM | > 100 | > 100 µM | > 100 µM |  |  |
| C=C(C(=O)O[C@H]1C/C(C)=C/CC/C(CO)=C/[C@H]2C(=O)OC(=C)[C@H]12)C(O)CO (some centres not stated) | 33.4 µM | 36 µM | 24.8 µM | 20.3 µM | > 60.8 µM | 11.8 µM | 24.1 µM | 18.4 | 22.8 µM | 30.1 µM |  |  |
| COc1cc2ccc(C(=O)NCCCNC(=O)c3ccc4cc(OC)c(OC)cc4c3)cc2cc1OC | > 100 µM | > 100 µM | > 100 µM | > 100 µM | > 100 µM | > 100 µM | > 100 µM | > 100 | > 100 µM | > 100 µM |  |  |
| N#Cc1c(-c2ccc(Cl)cc2)cc(-c2ccc(Nc3ccnc4cc(Cl)ccc34)cc2)[nH]c1=O | > 100 µM | > 100 µM | > 85.4 µM | > 55.3 µM | > 62.1 µM | > 100 µM | > 100 µM | > 100 | > 100 µM | > 100 µM |  |  |
| COc1ccc(-n2c(=O)c3[nH]c(=S)[nH]c3n(-c3ccc(OC)cc3)c2=S)cc1 | > 100 µM | > 100 µM | > 100 µM | > 100 µM | > 100 µM | > 100 µM | > 100 µM | > 100 | > 100 µM | > 100 µM |  |  |
| CCOC(=O)/C(C(N)=O)=C(\O)C(=O)/C(Br)=C(\O)c1ccccc1 | 39.7 µM | 36.3 µM | 33.3 µM | 33.2 µM | > 100 µM | 54.4 µM | 31.8 µM | 29.7 | 41.4 µM | 36.6 µM |  |  |
| CC(=O)n1cc(C2CC23N=C(c2ccccc2)OC3=O)c2ccccc21 (configuration not stated) | 33.2 µM | 35.8 µM | 38.3 µM | 53.8 µM | > 100 µM | > 100 µM | 32.8 µM | 33.5 | 53.4 µM | 30.8 µM |  |  |
